From patent US20260053861A1, “CELL COMPOSITIONS AND METHODS OF USING THE SAME” (THE REGENTS OF THE UNIVERSITY OF CALIFORNIA, priority 2022, published 2026)
Where a name gives a salt, the structure may show the parent alone.

What follows are compounds tested on hPSC-SCs. Conditions: not given.

In order of falling z.score.t:
1. O.O.O=c1c(O)c(-c2ccc(O)c(O)c2)oc2cc(O)cc(O)c12 [Quercetine dihydrate]  1.371
2. COc1ccn(C)c(=O)c1C#N [Ricinine]  0.8646
3. C=C1C/C(=C/C)C(=O)O[C@@H]2CCN3CC=C(COC(=O)[C@]1(C)O)[C@H]23 [Seneciphylline]  0.767
4. CCC1(CC)C(=O)C=CNC1=O [Pyrithyldione]  0.7158
5. CN1[C@@H]2C[C@@H](OC(=O)[C@H](CO)c3ccccc3)C[C@H]1[C@@H]1O[C@@H]12 [Scopolamine hydrochloride]  0.07936
6. Cc1nc2n(c(=O)c1CCN1CCC(c3noc4cc(F)ccc34)CC1)CCCC2 [Risperidone]  0.02517
7. Br.C[N+]1([O-])[C@@H]2CC(OC(=O)[C@H](CO)c3ccccc3)C[C@H]1[C@@H]1O[C@@H]12 (stereo partly shown) [Scopolamin-N-oxide hydrobromide]  −0.1983
8. CC[C@@H](C)C(=O)O[C@H]1[C@H](O)[C@H]2[C@@H](CN3C[C@@H](C)CC[C@H]3[C@@]2(C)O)[C@@H]2C[C@]34O[C@]5(O)[C@@H](OC(=O)[C@@](C)(O)CC)CC[C@@]3(C)[C@@H]5[C@@H](OC(C)=O)[C@@H](OC(C)=O)[C@H]4[C@@]21O [Protoveratrine A]  −0.3319
9. CC(C)c1cccc(C(C)C)c1O [Propofol]  −0.411
10. c1ccc2c(c1)CCCc1cc(NCCN3CCOCC3)nnc1-2 [SR-95639A]  −0.4139
11. COc1ccc2c3c([nH]c2c1)[C@H]1C[C@H]2[C@H](C[C@@H](O)[C@H](OC)[C@H]2C(=O)O)CN1CC3.Cl [Reserpinic acid hydrochloride]  −0.4278
12. Cc1ncc(CO)c(CO)c1O.Cl [Pyridoxine hydrochloride]  −0.5337
13. CN1[C@@H]2CCC[C@H]1CC(=O)C2.Cl [Pseudopelletierine hydrochloride]  −0.6864
14. O=[N+]([O-])c1cc([As](=O)(O)O)ccc1O [Roxarsone]  −0.751
15. O=C1C=C2C=C[C@@H]3C[C@@]2(O1)[C@H]1CCCCN31 [Securinine]  −0.9042
16. C#CCN(C)[C@H](C)Cc1ccccc1 [Selegiline hydrochloride]  −0.9978
17. NCCc1c[nH]c2ccc(O)cc12 [Serotonin hydrochloride]  −1.195
18. COc1cc2c(cc1O)[C@@H]1Cc3ccc(OC)c(O)c3CN1CC2 [Scoulerine]  −1.209
19. C[C@@H]1O[C@@H](O[C@@H]2C=C3CC[C@@H]4[C@H](CC[C@]5(C)[C@@H](c6ccc(=O)oc6)CC[C@]45O)[C@@]3(C)CC2)[C@H](O)[C@H](O)[C@H]1O [Proscillaridin A]  −1.543
20. C[n+]1cc2c3c(ccc2c2ccc4cc5c(cc4c21)OCO5)OCO3 [Sanguinarine]  −1.558

Same assay, conditions: HTS viability of hPSC-SCs in the presence of 30 mM glucose; Prestwick library; Table S4

In order of rising z.score.t:
1. COc1ccc(C[C@H](N)C(=O)N[C@H]2[C@@H](O)[C@H](n3cnc4c(N(C)C)ncnc43)O[C@@H]2CO)cc1 [Puromycin dihydrochloride]  −2.056
2. CCN(CC)CCCC(C)Nc1c2ccc(Cl)cc2nc2ccc(OC)cc12 (stereo not shown) [Quinacrine dihydrochloride dihydrate]  −1.898
3. O=C(c1ccc(OCCN2CCCCC2)cc1)c1c(-c2ccc(O)cc2)sc2cc(O)ccc12 [Raloxifene hydrochloride]  −1.825
4. COc1cc2ccc(=O)oc2cc1O [Scopoletin]  −1.558
5. Clc1ccc(C(Cn2ccnc2)OCc2csc3c(Cl)cccc23)c(Cl)c1 (stereo not shown) [Sertaconazole nitrate]  −1.558
6. CC(C)NCC(O)COc1cccc2ccccc12 (stereo not shown) [Propranolol hydrochloride]  −1.412
7. CN[C@H]1CC[C@@H](c2ccc(Cl)c(Cl)c2)c2ccccc21 [Sertraline]  −1.388
8. CCC(=O)[C@@]1(C)[C@H](C)C[C@H]2[C@@H]3CCC4=CC(=O)C=C[C@]4(C)[C@H]3[C@@H](O)C[C@@]21C [Rimexolone]  −1.354
9. OCc1cc(C(O)CNCCCCCCOCCCCc2ccccc2)ccc1O (stereo not shown) [Salmeterol]  −1.331
10. CCOc1cc(CC(=O)N[C@@H](CC(C)C)c2ccccc2N2CCCCC2)ccc1C(=O)O [Repaglinide]  −1.216
11. COC(=O)[C@H]1[C@H]2C[C@@H]3c4[nH]c5cc(OC)ccc5c4CCN3C[C@H]2C[C@@H](OC(=O)c2cc(OC)c(OC)c(OC)c2)[C@@H]1OC [Reserpine]  −1.042
12. CCC(C)(C)C(=O)O[C@H]1C[C@@H](C)C=C2C=C[C@H](C)[C@H](CC[C@@H]3C[C@@H](O)CC(=O)O3)[C@H]21 [Simvastatin]  −0.9395
13. CCC1NC(=O)c2cc(S(N)(=O)=O)c(Cl)cc2N1 (stereo not shown) [Quinethazone]  −0.9264
14. CCCOc1cc(N)ccc1C(=O)OCCN(CC)CC [Propoxycaine hydrochloride]  −0.8229
15. NC[C@H]1O[C@H](O[C@H]2[C@H](O[C@@H]3O[C@H](CO)[C@@H](O)[C@H]3O)[C@@H](O)[C@H](N)C[C@@H]2N)[C@H](N)[C@@H](O)[C@@H]1O [Ribostamycin sulfate salt]  −0.7757
16. CC[N+](C)(CC)CCC[n+]1c(-c2ccccc2)c2cc(N)ccc2c2ccc(N)cc21.[I-].[I-] [Propidium iodide]  −0.7567
17. C=C[C@H]1C[N@@]2CC[C@H]1C[C@@H]2[C@@H](O)c1ccnc2ccc(OC)cc12 [Quinidine hydrochloride monohydrate]  −0.6093
18. Cn1c([N+](=O)[O-])cnc1COC(N)=O [Ronidazole]  −0.5875
19. CCOC(=O)[C@H](CCc1ccccc1)N[C@@H](C)C(=O)N1[C@H](C(=O)O)C[C@@H]2CCC[C@@H]21 [Ramipril]  −0.5351
20. CNCCCC1c2ccccc2C=Cc2ccccc21 [Protriptyline hydrochloride]  −0.3678
21. CC(C)(C)NC(=O)[C@@H]1C[C@@H]2CCCC[C@@H]2CN1C[C@@H](O)[C@H](Cc1ccccc1)NC(=O)[C@H](CC(N)=O)NC(=O)c1ccc2ccccc2n1 [Saquinavir mesylate]  −0.3033
22. CC(O)Cn1cnc2c1c(=O)n(C)c(=O)n2C (stereo not shown) [Proxyphylline]  −0.3023
23. CCCc1cc(=O)[nH]c(=S)[nH]1 [Propylthiouracil]  −0.2904
24. CC(=O)SCC(Cc1ccccc1)C(=O)NCC(=O)OCc1ccccc1 (stereo not shown) [Racecadotril]  −0.1853
25. CO[C@H]1/C=C/O[C@@]2(C)Oc3c(C)c(O)c4c(c3C2=O)C2=NC3(CCN(CC(C)C)CC3)NC2=C(NC(=O)/C(C)=C\C=C\[C@H](C)[C@H](O)[C@@H](C)[C@@H](O)[C@@H](C)[C@H](OC(C)=O)[C@@H]1C)C4=O [Rifabutin]  −0.1474
26. CCOC(=O)[C@H](CCc1ccccc1)N[C@@H](C)C(=O)N1Cc2ccccc2C[C@H]1C(=O)O [Quinapril HCl]  −0.1464
27. COc1ccc(C2CNC(=O)C2)cc1OC1CCCC1 (stereo not shown) [Rolipram]  −0.01101
28. COC(=O)[C@H]1[C@H]2C[C@@H]3c4[nH]c5cc(OC)ccc5c4CCN3C[C@H]2C[C@@H](OC(=O)/C=C/c2cc(OC)c(OC)c(OC)c2)[C@@H]1OC [Rescinnamin]  0.006455
29. CCN1CCC[C@H]1CNC(=O)c1c(OC)ccc(Br)c1OC [Remoxipride Hydrochloride]  0.05395
30. COc1ccc(CN(CCN(C)C)c2ccccn2)cc1 [Pyrilamine maleate]  0.07016
31. CC[C@H]1OC(=O)[C@H](C)[C@@H](O[C@H]2C[C@@](C)(OC)[C@@H](O)[C@H](C)O2)[C@H](C)[C@@H](O[C@@H]2O[C@H](C)C[C@H](N(C)C)[C@H]2O)[C@](C)(O)C[C@@H](C)/C(=N\OCOCCOC)[C@H](C)[C@@H](O)[C@]1(C)O [Roxithromycin]  0.3241
32. C[C@@H]1NCCc2cc(O)c(O)cc21 [Salsolinol hydrobromide]  0.4048
33. CNC(=C[N+](=O)[O-])NCCSCc1ccc(CN(C)C)o1 [Ranitidine hydrochloride]  0.4486
34. CC(C)(C)NCC(O)c1ccc(O)c(CO)c1 (stereo not shown) [Salbutamol]  0.5041
35. CC(NCCc1ccc(O)cc1)C(O)c1ccc(O)cc1 (stereo not shown) [Ritodrine hydrochloride]  0.5046
36. O=C(O)[C@]1(O)C[C@@H](O)[C@@H](O)[C@H](O)C1 [Quinic acid]  0.5268
37. CCc1nc(N)nc(N)c1-c1ccc(Cl)cc1 [Pyrimethamine]  0.5856
38. CCCOc1ccc(C(=O)OCCN(CC)CC)cc1N [Proparacaine hydrochloride]  0.7158
39. CC(C)[N+](C)(CCOC(=O)C1c2ccccc2Oc2ccccc21)C(C)C [Propantheline bromide]  0.9525
40. Oc1ccc(C=Cc2cc(O)cc(O)c2)cc1 [Resveratrol]  0.9702
41. CC(C)Cc1ccc([C@H](C)C(=O)O)cc1 [S-(+)-ibuprofen]  1.02
42. CO[C@H]1/C=C/O[C@@]2(C)Oc3c(C)c(O)c4c(O)c(c(/C=N/N5CCN(C)CC5)c(O)c4c3C2=O)NC(=O)/C(C)=C\C=C\[C@H](C)[C@H](O)[C@@H](C)[C@@H](O)[C@@H](C)[C@H](OC(C)=O)[C@@H]1C [Rifampicin]  1.139
43. CC(=O)OCC(=O)NCCCOc1cccc(CN2CCCCC2)c1 [Roxatidine Acetate HCl]  1.139
44. Cc1cc2nc3c(=O)[nH]c(=O)nc-3n(C[C@H](O)[C@H](O)[C@H](O)CO)c2cc1C [Riboflavine]  1.211
45. COC(=O)[C@H]1[C@H]2C[C@H]3c4[nH]c5ccccc5c4CCN3C[C@H]2CC[C@@H]1O [Rauwolscine hydrochloride]  1.384
46. COc1ccccc1OCC(O)CN1CCN(CC(=O)Nc2c(C)cccc2C)CC1 (stereo not shown) [Ranolazine]  1.442
47. CN(C)[C@@H]1C(O)=C(C(=O)NCN2CCCC2)C(=O)[C@@]2(O)C(O)=C3C(=O)c4c(O)cccc4[C@@](C)(O)[C@H]3C[C@@H]12 [Rolitetracycline]  1.601
48. NC(=O)c1cnccn1 [Pyrazinamide]  1.73
49. CC1=C(/C=C/C(C)=C/C=C/C(C)=C/C(=O)O)C(C)(C)CCC1 [Retinoic acid]  1.751
50. NC(=O)c1ncn([C@@H]2O[C@H](CO)[C@@H](O)[C@H]2O)n1 [Ribavirin]  2.03
